Measured values: patent US9505798B2, “Steroid compounds as RORyt modulators and uses thereof” (New York University, priority 2010, dated 2016)

Tests used:
[1] = tested on: human Th17 cell differentiation; experiment: Human Th17 cell differentiation from naive cord blood CD4+ T cells; type: cell-based
Description: GFP expressing cells were gated for analysis. DMSO, Dig(dhd) (40 μM) or Dig(sal) (10 μM) was added 6-8 h after viral transduction. c, Flow cytometry of the production of IL-17a and IFN-γ by human naive cord blood T cells cultured for six days in the presence of IL-2, IL-23, and IL-1β, with various concentrations of TGF-β. DMSO, Dig(dhd), or Dig(sal) at indicated concentrations (μM) was added 16 h after cytokine addition.
(§1) Blood samples were obtained from the New York Blood Center. Mononuclear cells were prepared from buffy coats from healthy adult donors or from cord blood, using FicollPAQUE gradients. CD4^+ T cells were magnetically selected (autoMACS, Miltenyi). Adult memory CD4^+ T cell subsets were further purified as CD3^+CD4^+CD25^− CD45RO^+CCR6^+CD161^+ by cell sorting on a FACSAria (BD). Naive CD4^+ T cells were isolated from cord blood as CD3^+CD4^+CD45RA^+HLA-DR^−CD25^−DAPI^−. Memory cells were activated with anti-CD3/CD28 coated beads (1 bead/cell) in T cell media (see above) supplemented with 100 U/mL IL-2 (Peprotech), 10 ng/mL IL-1b and 10 ng/mL IL-23 (eBioscience). Naive cells were activated with anti-CD3/CD28 beads and cultured with the same cytokines, and TGF-b (0, 0.1, 1, or, 10 ng/mL) (Peprotech), in XVIVO-20 (Lonza) media. […] Naive CD4^+ T cells, cultured in XVIVO-20 media supplemented 100 U/mL IL-2 (Peprotech), were transduced with RORad-IRES-GFP or RORγt-IRES-GFP on day 1 and analyzed on day 6. GFP expressing cells were gated for analysis. DMSO or compounds were added 6-8 hours after the viral transduction.
(§2) Blood samples were obtained from the New York Blood Center. Mononuclear cells were prepared from buffy coats from healthy adult donors or from cord blood, using FicollPAQUE gradients. CD4^+ T cells were magnetically selected (autoMACS, Miltenyi). Adult memory CD4+ T cell subsets were further purified as CD3^+CD4^+CD25^−CD45RO^+CCR6^+CD161^+ by cell sorting on a FACSAria (BD). Naive CD4^+ T cells were isolated from cord blood as CD3^+CD4^+CD45RA^+HLA^−DR^−CD25^−DAPI^−. Memory cells were activated with anti-CD3/CD28 coated beads (1 bead/cell) in T cell media (see above) supplemented with 100 U/mL IL-2 (Peprotech), 10 ng/mL IL-1β and 10 ng/mL IL-23 (eBioscience). Naive cells were activated with anti-CD3/CD28 beads and cultured with the same cytokines, and TGF-β (0, 0.1, 1, or, 10 ng/mL) (Peprotech), in XVIVO-20 (Lonza) media. […] Naive CD4+ T cells, cultured in XVIVO-20 media supplemented with 100 U/mL IL-2 (Peprotech), were transduced with RORαd-IRES-GFP or RORγt-IRES-GFP on day 1 and analyzed on day 6. GFP expressing cells were gated for analysis. DMSO or compounds were added 6-8 hours after the viral transduction.

human memory Th17 cells = settings: 40 μM, 6 days
Description: (§3) Mononuclear cells were collected from draining lymph nodes of wild-type or IL-23RGFP knock-in heterozygous mice 7 days after MOG(35-55)/CFA injection.
as §1, with “GFP expressing cells were gated for analysis. DMSO or compounds were added 6-8 hours after the viral transduction.” left out
Blood samples were obtained from the New York Blood Center. […] Naive CD4+ T cells, cultured in XVIVO-20 media supplemented with 100 U/mL IL-2 (Peprotech), were transduced with RORαd-IRES-GFP or RORγt-IRES-GFP on day 1 and analyzed on day 6. […]

[2] = tested on: pre-differentiated mouse Th17 cells; experiment: Pre-differentiated mouse Th17 cells from MOG-immunized mice, in vitro; type: cell-based; settings: expanded Th17 cells from immunized mice, 10 μM
Description: as §3

[3] = tested on: IL-17a production in human CD4+ T cells; experiment: Human cord blood CD4+ T cells expressing murine ATP1a1, Th17 conditions; type: cell-based; settings: murine Na+/K+-ATPase α1 expressed, 10 μM
Description: as §2

[4] = tested on: experimental autoimmune encephalomyelitis (EAE); experiment: Active EAE (MOG35-55/CFA) in C57BL/6 mice; type: in vivo, mouse

Compound	expression of CCR6 [1]	IFN-γ expression in T cells ([1]; FIG. 3c)	Th17 cell differentiation ([1]; FIG. 3c)	inhibition at 40 µM ([1]; Homo sapiens, CD4+ T, read-out: Th17 inhibition) [%]	IFN-γ-expressing cells (human memory Th17 cells)	reduction of IL-17a-expressing cells (human memory Th17 cells)	IL-23R and IL-17a expression [2]	IL-17a expression [3]	EAE onset and severity of progression ([4]; IP daily from day 2)	percentage of IFN-γ-producing Th1 cells infiltrating the spinal cord ([4]; compared to DMSO-treated mice)	reduction of percentage of IL-17-producing T cells infiltrating the spinal cord ([4]; compared to DMSO-treated mice, day 21)	total number of mononuclear cells infiltrating the spinal cord ([4]; mouse, in vivo)
CC1O[C@@H](OC2C(C)O[C@H](OC3C(C)O[C@@H](O[C@H]4CC[C@@]5(C)[C@H](CC[C@@H]6[C@@H]5C[C@@H](O)[C@]5(C)[C@@H](C(CO)CCO)CC[C@]65O)C4)C[C@H]3O)C[C@H]2O)C[C@@H](O)C1O (stereo partly drawn) [Compound 13, 20,22-Dihydrodigoxin-21,23-diol]	reduced	reciprocal increases	blocked	~80	little effect	40-50%						
C[C@H]1O[C@@H](O[C@H]2[C@@H](O)C[C@H](O[C@H]3[C@@H](O)C[C@H](O[C@H]4CC[C@@]5(C)[C@H](CC[C@@H]6[C@@H]5C[C@@H](O)[C@]5(C)[C@@H](C7=CC(=O)OC7)CC[C@]65O)C4)O[C@@H]3C)O[C@@H]2C)C[C@H](O)[C@@H]1O [Digoxin]							inhibited both IL-23R (FIG. 4a) and IL-17a (FIG. 4b, bottom) expression without affecting IFN-γ expression	suppressed IL-17a production without affecting IFN-γ expression	not only delayed onset, but also reduced severity	approximately the same	more than 50%	markedly reduced
